Assays:
Tau = target: T1, Tau (Homo sapiens, UniProt P10636); test: one-step kinetic SPR (KD […]); solid phase binding with biotin-dexamethasone ([…]); DARTS in Raw264.[…] lysate ([…])
T1 construct: gene MAPT; purified Tau protein

GPR97 = target: T2, GPR97 (Homo sapiens, UniProt Q86Y34); test: HuProt human proteome microarray with biotin-labeled dexamethasone ([…]); type: binding
T2 construct: gene ADGRG3; full-length human protein with N-terminal glutathione S-transferase tag on microarray
T2 sequence (Q86Y34 21-549): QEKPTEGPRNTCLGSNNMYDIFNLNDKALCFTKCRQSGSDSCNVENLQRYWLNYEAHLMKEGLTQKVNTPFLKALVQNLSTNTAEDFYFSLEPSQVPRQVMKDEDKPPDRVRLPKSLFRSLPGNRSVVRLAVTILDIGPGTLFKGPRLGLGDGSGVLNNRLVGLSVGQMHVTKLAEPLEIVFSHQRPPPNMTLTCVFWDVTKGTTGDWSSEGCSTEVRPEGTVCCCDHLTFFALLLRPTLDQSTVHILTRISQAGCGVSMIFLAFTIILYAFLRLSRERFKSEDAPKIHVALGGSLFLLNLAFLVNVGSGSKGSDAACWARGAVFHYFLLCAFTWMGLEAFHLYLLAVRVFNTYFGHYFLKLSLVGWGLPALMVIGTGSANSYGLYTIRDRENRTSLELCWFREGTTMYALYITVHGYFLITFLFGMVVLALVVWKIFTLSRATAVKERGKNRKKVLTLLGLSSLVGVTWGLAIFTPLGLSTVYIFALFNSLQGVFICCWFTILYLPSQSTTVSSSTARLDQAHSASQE

T1 sequence (P10636 1-441 isoform P10636-8): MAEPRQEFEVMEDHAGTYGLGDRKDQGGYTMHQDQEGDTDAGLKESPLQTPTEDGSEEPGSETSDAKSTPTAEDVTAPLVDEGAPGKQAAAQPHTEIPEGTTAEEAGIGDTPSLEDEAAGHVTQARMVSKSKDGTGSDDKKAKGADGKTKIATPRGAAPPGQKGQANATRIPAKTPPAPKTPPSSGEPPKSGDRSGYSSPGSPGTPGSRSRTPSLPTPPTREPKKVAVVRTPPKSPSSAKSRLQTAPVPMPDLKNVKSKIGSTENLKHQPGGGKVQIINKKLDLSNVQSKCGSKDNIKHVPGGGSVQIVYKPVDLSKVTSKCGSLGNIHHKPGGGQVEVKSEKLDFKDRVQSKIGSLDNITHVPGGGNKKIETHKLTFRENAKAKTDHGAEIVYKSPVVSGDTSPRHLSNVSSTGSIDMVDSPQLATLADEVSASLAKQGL

- Kd (Tau): ~380 µM
SMILES: C[C@@H]1C[C@H]2[C@@H]3CCC4=CC(=O)C=C[C@]4(C)[C@@]3(F)[C@@H](O)C[C@]2(C)[C@@]1(O)C(=O)CO [dexamethasone]
- HuProt human proteome microarray with biotin-labeled dexamethasone (0.2 and 400) (GPR97): dexamethasone bound to GR and GPR97, two known receptors of dexamethasone

Reference: paper PMC11701132, “Tau is a receptor with low affinity for glucocorticoids and is required for glucocorticoid-induced bone loss” (Cell Research, 2025)
